# Laboratory results as given in article PMC12272882, “Ancestral evolution of oxidase activity in a class of (S)-nicotine and (S)-6-hydroxynicotine-degrading flavoenzymes” (The Journal of Biological Chemistry, 2025).
# Where two headings read alike, the source gives them in different places.
# How the values were obtained:
# Node D [1] = conditions: pH 7.5, 4 °C, no O2; binding to oxidized enzyme; biphasic
# Target sequence in this assay (DOC12272882_5 1-447 E300T): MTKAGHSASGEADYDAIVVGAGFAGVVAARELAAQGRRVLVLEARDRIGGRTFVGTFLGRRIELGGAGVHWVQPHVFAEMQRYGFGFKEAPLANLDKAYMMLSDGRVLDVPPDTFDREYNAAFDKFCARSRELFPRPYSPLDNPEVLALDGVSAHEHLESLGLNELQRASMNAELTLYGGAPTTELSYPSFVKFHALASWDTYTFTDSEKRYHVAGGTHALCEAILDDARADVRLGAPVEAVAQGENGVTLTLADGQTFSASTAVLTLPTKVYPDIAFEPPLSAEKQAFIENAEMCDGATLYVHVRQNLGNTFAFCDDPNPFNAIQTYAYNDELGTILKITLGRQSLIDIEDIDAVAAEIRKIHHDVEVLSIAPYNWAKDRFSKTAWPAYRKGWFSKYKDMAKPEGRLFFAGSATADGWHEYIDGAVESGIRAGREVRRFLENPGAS
# Node D [2] = conditions: pH 7.5, 4 °C, no O2; binding to oxidized enzyme; biphasic; remark: listed apart in the source
# Target sequence in this assay (DOC12272882_5 1-447 A90V): as the sequence (DOC12272882_5 1-447 E300T) above, with A90V, T300E counted along it
# Node A [3] = biological target: T1, Node A (synthetic construct, UniProt Z9LAG0LSP2); experiment: anaerobic stopped-flow flavin reduction at […] nm; assay type: biochemical; conditions: pH 7.5, 4 °C, no O2
# T1 construct: ancestral reconstruction
# T1 sequence (Z9LAG0LSP2 1-442): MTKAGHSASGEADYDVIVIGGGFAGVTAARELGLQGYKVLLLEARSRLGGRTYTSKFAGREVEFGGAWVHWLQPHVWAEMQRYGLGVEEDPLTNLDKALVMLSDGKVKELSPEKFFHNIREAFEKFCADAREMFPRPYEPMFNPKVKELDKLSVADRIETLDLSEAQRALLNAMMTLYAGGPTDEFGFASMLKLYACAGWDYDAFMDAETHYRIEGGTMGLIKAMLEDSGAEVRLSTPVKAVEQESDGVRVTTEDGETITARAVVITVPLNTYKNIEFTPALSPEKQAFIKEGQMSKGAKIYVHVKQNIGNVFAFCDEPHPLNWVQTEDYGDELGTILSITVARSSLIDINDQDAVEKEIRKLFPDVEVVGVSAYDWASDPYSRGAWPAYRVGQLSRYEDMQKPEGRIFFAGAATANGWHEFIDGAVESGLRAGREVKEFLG
# Node D [4] = conditions: pH 7.5, 4 °C, no O2; binding to oxidized enzyme; biphasic; remark: listed apart in the source
# Target sequence in this assay (DOC12272882_5 1-447 M100V): as the sequence (DOC12272882_5 1-447 E300T) above, with M100V, T300E counted along it
# Node A [5] = biological target: T1, Node A; experiment: absorbance spectrum of purified enzyme; assay type: binding; conditions: as purified
# Node C = biological target: T2, Node C (synthetic construct, UniProt Z9TTH1JYZ3); experiment: absorbance spectrum of purified enzyme; assay type: binding; conditions: as purified
# T2 construct: ancestral reconstruction; N-terminal MTKAGHSASGEA peptide added, C-terminal His tag, pET29b, E. coli BL21(DE3); 431 positions
# Node B = biological target: T3, Node B (synthetic construct, UniProt Z9QPI4SOH8); experiment: absorbance spectrum of purified enzyme; assay type: binding; conditions: as purified
# T3 construct: ancestral reconstruction
# NctB = biological target: T4, NctB (Shinella sp. HZN7, UniProt A0A075BSX9); experiment: absorbance spectrum of purified enzyme; assay type: binding; conditions: as purified
# T4 construct: synthetic gene in pET29b, C-terminal His tag, E. coli BL21(DE3); FAD holoenzyme
# Node D [6] = biological target: T5, Node D (synthetic construct, UniProt Z9ZYW4GBP2); experiment: absorbance spectrum of purified enzyme; assay type: binding; conditions: as purified
# T5 construct: ancestral reconstruction; N-terminal MTKAGHSASGEA peptide (from Node D's own predicted N-terminal region), C-terminal His tag, pET29b, E. coli BL21(DE3); 431 positions
# T4 sequence (A0A075BSX9 whole entry): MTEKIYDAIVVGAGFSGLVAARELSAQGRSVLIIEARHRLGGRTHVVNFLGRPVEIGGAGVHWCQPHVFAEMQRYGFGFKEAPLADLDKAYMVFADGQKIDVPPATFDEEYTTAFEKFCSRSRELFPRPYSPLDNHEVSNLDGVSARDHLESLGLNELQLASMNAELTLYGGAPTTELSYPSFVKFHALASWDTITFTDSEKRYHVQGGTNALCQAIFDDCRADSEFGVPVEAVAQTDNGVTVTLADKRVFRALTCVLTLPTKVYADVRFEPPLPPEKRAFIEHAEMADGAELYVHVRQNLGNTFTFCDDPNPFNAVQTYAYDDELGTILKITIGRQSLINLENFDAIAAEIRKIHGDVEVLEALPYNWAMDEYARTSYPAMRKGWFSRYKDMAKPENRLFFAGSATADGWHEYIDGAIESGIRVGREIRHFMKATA
SMILES,Kd (Node D [1]),Kd (Node D [2]),anaerobic stopped-flow flavin reduction at 450 nm (Node A [3]),Kd (Node D [4]),absorbance spectrum of purified enzyme (Node A [5]),absorbance spectrum of purified enzyme (Node C),absorbance spectrum of purified enzyme (Node B),absorbance spectrum of purified enzyme (NctB),absorbance spectrum of purified enzyme (Node D [6])
"CN1CCC[C@H]1c1ccc(O)nc1 [6OHN, (S)-6-hydroxynicotine]",All three mutants were capable of reacting with 6OHN,All three mutants were capable of reacting with 6OHN,Node A reacted poorly with both nicotine and 6OHN,All three mutants were capable of reacting with 6OHN,,,,,
CN1CCC[C@H]1c1cccnc1 [(S)-nicotine],,,Node A reacted poorly with both nicotine and 6OHN,,,,,,
"Cc1cc2nc3c(=O)[nH]c(=O)nc-3n(C[C@H](O)[C@H](O)[C@H](O)COP(=O)(O)OP(=O)(O)OC[C@H]3O[C@@H](n4cnc5c(N)ncnc54)[C@H](O)[C@@H]3O)c2cc1C [FAD, flavin adenine dinucleotide]",,,,,All ASR constructs purified with FAD bound,All ASR constructs purified with FAD bound,All ASR constructs purified with FAD bound,all of the ASR enzymes and NctB have typical spectra of oxidized FAD,All ASR constructs purified with FAD bound
